Key:
Format in all cases: in vivo
[1] = system: Kochia (Kochia scoparia); test: Test A preemergence; details: Bassia scoparia, pre-emergence, 240 h
In short: (§1)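 In a loam soil and sand blend, planted seeds got a preemergence directed soil spray, and young plants at the one- to two-leaf stage, 2–10 cm high, got a postemergence application; ~10 d greenhouse hold; injury rated visually, 0 = none, 100 = complete control.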

[2] = system: barnyardgrass (Echinochloa crus-galli); test: Test A preemergence; details: Echinochloa crus-galli, pre-emergence, 240 h
In short: as §1

[3] = system: giant foxtail (Setaria faberii); test: Test A preemergence; details: Setaria faberi, pre-emergence, 240 h
In short: as §1

[4] = system: pigweed (Amaranthus retroflexus); test: Test A preemergence; details: Amaranthus retroflexus, pre-emergence, 240 h
[5] = system: ragweed (common ragweed, Ambrosia elatior); test: Test A preemergence; details: Ambrosia artemisiifolia, pre-emergence, 240 h
In short: as §1

[6] = system: ryegrass, Italian (Italian ryegrass, Lolium multiflorum); test: Test A preemergence; details: Lolium multiflorum, pre-emergence, 240 h
In short: as §1

[7] = system: Galium (catchweed bedstraw, Galium aparine); test: Test A postemergence; details: Galium, post-emergence, 240 h, 125 g ai/ha, Postemergence; visual injury after approximately 10 d; 0 to 100 scale where 0 is no effect and 100 is complete control; read-out: Plant response rating, Galium
In short: as §1

[8] = system: Kochia (Kochia scoparia); test: Test A postemergence; details: Bassia scoparia, post-emergence, 240 h, 125 g ai/ha, Postemergence; visual injury after approximately 10 d; 0 to 100 scale where 0 is no effect and 100 is complete control; read-out: Plant response rating, Kochia
In short: as §1

[9] = system: barnyardgrass (Echinochloa crus-galli); test: Test A postemergence; details: Echinochloa crus-galli, post-emergence, 240 h, 125 g ai/ha, Postemergence; visual injury after approximately 10 d; 0 to 100 scale where 0 is no effect and 100 is complete control; read-out: Plant response rating, Barnyardgrass
In short: as §1

[10] = system: blackgrass (Alopecurus myosuroides); test: Test A postemergence; details: Alopecurus myosuroides, post-emergence, 240 h, 125 g ai/ha, Postemergence; visual injury after approximately 10 d; 0 to 100 scale where 0 is no effect and 100 is complete control; read-out: Plant response rating, Blackgrass
In short: as §1

[11] = system: corn (Zea mays); test: Test A postemergence; details: Zea mays, post-emergence, 240 h, 125 g ai/ha, Postemergence; visual injury after approximately 10 d; 0 to 100 scale where 0 is no effect and 100 is complete control
In short: as §1

[12] = system: giant foxtail (Setaria faberii); test: Test A postemergence; details: Setaria faberi, post-emergence, 240 h, 125 g ai/ha, Postemergence; visual injury after approximately 10 d; 0 to 100 scale where 0 is no effect and 100 is complete control; read-out: Plant response rating, Foxtail, Giant
In short: as §1

[13] = system: pigweed (Amaranthus retroflexus); test: Test A postemergence; details: Amaranthus retroflexus, post-emergence, 240 h, 125 g ai/ha, Postemergence; visual injury after approximately 10 d; 0 to 100 scale where 0 is no effect and 100 is complete control; read-out: Plant response rating, Pigweed
In short: as §1

[14] = system: ragweed (common ragweed, Ambrosia elatior); test: Test A postemergence; details: Ambrosia artemisiifolia, post-emergence, 240 h, 125 g ai/ha, Postemergence; visual injury after approximately 10 d; 0 to 100 scale where 0 is no effect and 100 is complete control; read-out: Plant response rating, Ragweed
In short: as §1

[15] = system: ryegrass, Italian (Italian ryegrass, Lolium multiflorum); test: Test A postemergence; details: Lolium multiflorum, post-emergence, 240 h, 125 g ai/ha, Postemergence; visual injury after approximately 10 d; 0 to 100 scale where 0 is no effect and 100 is complete control; read-out: Plant response rating, Ryegrass, Italian
In short: as §1

[16] = system: wheat (Triticum aestivum); test: Test A postemergence; details: Triticum aestivum, post-emergence, 240 h, 125 g ai/ha, Postemergence; visual injury after approximately 10 d; 0 to 100 scale where 0 is no effect and 100 is complete control; read-out: Plant response rating, Wheat
In short: as §1

[17] = system: barnyardgrass (Echinochloa crus-galli); test: Test B flooded paddy test; details: Echinochloa crus-galli, Flood, 250 g ai/ha; scale of 0 to 100 where 0 is no effect and 100 is complete control; read-out: Barnyardgrass plant response rating
In short: (§2)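 Plants at 2-leaf stage flooded to 3 cm above soil, with compounds applied directly to paddy water and that depth maintained. Plants kept in greenhouse 13–15 d. Visual rating versus controls on a 0 (no effect) to 100 (complete control) scale.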

[18] = system: ducksalad (Heteranthera limosa); test: Test B flooded paddy test; details: Heteranthera limosa, Flood, 250 g ai/ha; scale of 0 to 100 where 0 is no effect and 100 is complete control; read-out: Ducksalad plant response rating
In short: as §2

[19] = system: rice (Oryra sativa); test: Test B flooded paddy test; details: Oryza sativa, Flood, 250 g ai/ha; scale of 0 to 100 where 0 is no effect and 100 is complete control; read-out: Rice plant response rating
In short: as §2

[20] = system: sedge, umbrella (small-flower umbrella sedge, Cyperus difformis); test: Test B flooded paddy test; details: Cyperus difformis, Flood, 250 g ai/ha; scale of 0 to 100 where 0 is no effect and 100 is complete control; read-out: Sedge, Umbrella plant response rating
In short: as §2

CN1C[C@H](c2csc(C(F)(F)F)c2)[C@@H](C(=O)Nc2ccccc2F)C1=O [Compound 958]
pest or weed control at 125 g/ha ([1]; 125 g ai/ha, Preemergence, visual injury rating after approximately 10 d, read-out: Kochia plant response rating (0 to 100 scale, 0 is no effect, 100 is complete control)): 0% | pest or weed control at 500 g/ha ([1]; 500 g ai/ha, preemergence, visual injury rating about 10 d after treatment, 0 to 100 scale (0 no effect, 100 complete control), read-out: Kochia plant response rating): 90% | pest or weed control at 125 g/ha ([2]; 125 g ai/ha, Preemergence, visual injury rating after approximately 10 d, read-out: Barnyardgrass plant response rating (0 to 100 scale, 0 is no effect, 100 is complete control)): 90% | pest or weed control at 500 g/ha ([2]; 500 g ai/ha, preemergence, visual injury rating about 10 d after treatment, 0 to 100 scale (0 no effect, 100 complete control), read-out: Barnyardgrass plant response rating): 90% | pest or weed control at 125 g/ha ([3]; 125 g ai/ha, Preemergence, visual injury rating after approximately 10 d, read-out: Foxtail, Giant plant response rating (0 to 100 scale, 0 is no effect, 100 is complete control)): 90% | pest or weed control at 500 g/ha ([3]; 500 g ai/ha, preemergence, visual injury rating about 10 d after treatment, 0 to 100 scale (0 no effect, 100 complete control), read-out: Foxtail, Giant plant response rating): 90% | pest or weed control at 125 g/ha ([4]; 125 g ai/ha, Preemergence, visual injury rating after approximately 10 d, read-out: Pigweed plant response rating (0 to 100 scale, 0 is no effect, 100 is complete control)): 0% | pest or weed control at 500 g/ha ([4]; 500 g ai/ha, preemergence, visual injury rating about 10 d after treatment, 0 to 100 scale (0 no effect, 100 complete control), read-out: Pigweed plant response rating): 30% | pest or weed control at 125 g/ha ([5]; 125 g ai/ha, Preemergence, visual injury rating after approximately 10 d, read-out: Ragweed plant response rating (0 to 100 scale, 0 is no effect, 100 is complete control)): 20% | pest or weed control at 500 g/ha ([5]; 500 g ai/ha, preemergence, visual injury rating about 10 d after treatment, 0 to 100 scale (0 no effect, 100 complete control), read-out: Ragweed plant response rating): 60% | pest or weed control at 125 g/ha ([6]; 125 g ai/ha, Preemergence, visual injury rating after approximately 10 d, read-out: Ryegrass, Italian plant response rating (0 to 100 scale, 0 is no effect, 100 is complete control)): 0% | pest or weed control at 500 g/ha ([6]; 500 g ai/ha, preemergence, visual injury rating about 10 d after treatment, 0 to 100 scale (0 no effect, 100 complete control), read-out: Ryegrass, Italian plant response rating): 20% | pest or weed control at 125 g/ha [7]: 30% | pest or weed control at 125 g/ha [8]: 0% | pest or weed control at 125 g/ha [9]: 70% | pest or weed control at 125 g/ha [10]: 30% | Corn plant response rating (crop injury, 0 = no effect, 100 = complete kill) at 125 g/ha [11]: 0% | pest or weed control at 125 g/ha [12]: 90% | pest or weed control at 125 g/ha [13]: 0% | pest or weed control at 125 g/ha [14]: 0% | pest or weed control at 125 g/ha [15]: 0% | plant injury at 125 g/ha [16]: 0% | pest or weed control at 250 g/ha [17]: 55% | pest or weed control at 250 g/ha [18]: 100% | pest or weed control at 250 g/ha [19]: 15% | pest or weed control at 250 g/ha [20]: 0%
